This note sets out measurements from ChEMBL document CHEMBL4507297, “Data for DCP probe PF-04457845” (2021).

The target in data set [1] is Fatty-acid amide hydrolase 1 (Homo sapiens, UniProt O00519). The experiment in a line: Binding assay. More on the design: compound concentration 10 uM.
Data set [2] addresses 5-hydroxytryptamine receptor 2B (Homo sapiens, UniProt P41595). The data set can be described thus: GPCRScan assay: inhibition of 5-HT2B. More on the design: radioligand conc. used [nm] 1.0 – 2.0, parental cells stable HEK.
Data set [3] addresses Sigma non-opioid intracellular receptor 1 (Homo sapiens, UniProt Q99720). The data set can be described thus: GPCRScan assay: inhibition of Sigma 1. More on the design: radioligand conc. used [nm] 4.0 – 5.0, parental cells HEKT.
For data set [4], the target named is Adenosine receptor A1 (Homo sapiens) (UniProt P30542). The data set can be described thus: A1 (h) CEREP ligand profiling. The conditions noted are these: Compound concentration 10.0 uM.
In data set [5] the target is Adrenergic receptor alpha-1 (Homo sapiens) (UniProt P35348+P25100+P35368). The experiment in a line: alpha1 (non-selective) CEREP ligand profiling. The format is protein assay. The following applies: Compound concentration 10.0 uM.
Data set [6] addresses T1, Alpha-2A adrenergic receptor (Homo sapiens) (UniProt P08913).
T1 sequence (whole entry): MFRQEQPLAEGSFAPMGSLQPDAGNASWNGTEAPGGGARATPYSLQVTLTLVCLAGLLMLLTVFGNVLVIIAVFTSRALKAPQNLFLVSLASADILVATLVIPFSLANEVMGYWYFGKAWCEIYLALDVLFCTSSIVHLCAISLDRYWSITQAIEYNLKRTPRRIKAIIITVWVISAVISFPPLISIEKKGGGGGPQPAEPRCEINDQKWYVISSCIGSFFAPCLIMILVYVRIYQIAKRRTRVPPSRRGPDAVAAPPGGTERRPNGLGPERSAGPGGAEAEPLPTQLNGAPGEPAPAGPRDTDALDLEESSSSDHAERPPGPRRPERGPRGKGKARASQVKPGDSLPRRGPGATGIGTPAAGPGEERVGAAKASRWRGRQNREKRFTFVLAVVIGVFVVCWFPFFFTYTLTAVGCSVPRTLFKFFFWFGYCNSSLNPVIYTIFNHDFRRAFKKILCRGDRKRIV
The experiment in a line: alpha2A (h) CEREP ligand profiling. The following applies: Compound concentration 10.0 uM.

Data set [7] has as its target Beta-1 adrenergic receptor (Homo sapiens) (UniProt P08588). The data set can be described thus: beta1 (h) CEREP ligand profiling. The conditions noted are these: Compound concentration 10.0 uM.
A further data set addresses Cannabinoid receptor 1 (Homo sapiens, UniProt P21554). The experiment in a line: CB1 (h) CEREP ligand profiling.
A further data set addresses Cannabinoid receptor 2 (Homo sapiens, UniProt P34972). The experiment in a line: CB2 (h) CEREP ligand profiling.
Data set [8] has as its target Cholecystokinin receptor type A (Homo sapiens) (UniProt P32238). The experiment in a line: CCKA (h) (CCK1) CEREP ligand profiling. The following applies: Compound concentration 10.0 uM.
Data set [9] deals with Gastrin/cholecystokinin type B receptor (Homo sapiens) (UniProt P32239). The data set can be described thus: CCKB (h) (CCK2) CEREP ligand profiling. The conditions noted are these: Compound concentration 10.0 uM.
Gastrin/cholecystokinin type B receptor (Homo sapiens), sequence (P32239 whole entry): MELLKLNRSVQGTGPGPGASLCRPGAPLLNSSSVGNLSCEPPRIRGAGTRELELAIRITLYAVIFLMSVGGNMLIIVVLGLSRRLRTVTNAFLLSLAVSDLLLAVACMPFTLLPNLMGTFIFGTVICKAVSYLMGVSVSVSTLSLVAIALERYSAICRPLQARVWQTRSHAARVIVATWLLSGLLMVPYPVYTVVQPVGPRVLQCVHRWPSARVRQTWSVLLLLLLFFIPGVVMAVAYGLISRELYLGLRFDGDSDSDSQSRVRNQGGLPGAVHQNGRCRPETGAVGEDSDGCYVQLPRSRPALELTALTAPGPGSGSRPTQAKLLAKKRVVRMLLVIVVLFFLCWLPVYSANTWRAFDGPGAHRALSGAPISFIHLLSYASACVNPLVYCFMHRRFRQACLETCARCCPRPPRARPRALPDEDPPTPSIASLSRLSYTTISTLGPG
For data set [10], the target named is D(3) dopamine receptor (Homo sapiens) (UniProt P35462). The experiment in a line: D3 (h) CEREP ligand profiling. The following applies: Compound concentration 10.0 uM.
D(3) dopamine receptor (Homo sapiens), sequence (P35462 whole entry): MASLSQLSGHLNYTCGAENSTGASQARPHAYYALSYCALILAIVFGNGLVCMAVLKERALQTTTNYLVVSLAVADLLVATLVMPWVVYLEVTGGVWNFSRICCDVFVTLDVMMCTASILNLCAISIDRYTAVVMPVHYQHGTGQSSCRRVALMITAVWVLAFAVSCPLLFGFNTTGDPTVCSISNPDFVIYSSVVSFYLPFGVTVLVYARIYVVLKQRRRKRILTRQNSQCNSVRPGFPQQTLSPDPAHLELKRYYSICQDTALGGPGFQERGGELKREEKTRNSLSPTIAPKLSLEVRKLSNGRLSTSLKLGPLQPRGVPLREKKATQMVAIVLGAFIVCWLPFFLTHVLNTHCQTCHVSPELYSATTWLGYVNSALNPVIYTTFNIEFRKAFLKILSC
Data set [11] has as its target Glutamate receptor ionotropic, AMPA (Rattus norvegicus) (UniProt P19491+P19492+P19493+P19490). The experiment in a line: AMPA CEREP ligand profiling. The format is protein-complex assay. The conditions noted are these: Compound concentration 10.0 uM.
The nature of data set [12]: Glycine (strychnine-insensitive) CEREP ligand profiling. The following applies: Compound concentration 10.0 uM.
Data set [13] concerns the target MAO-A (Amine oxidase [flavin-containing] A) (Homo sapiens, UniProt P21397). The data set can be described thus: MAO-A CEREP ligand profiling. The conditions noted are these: compound concentration 10 uM.
Data set [14] addresses T2, Muscarinic acetylcholine receptor M2 (Homo sapiens) (UniProt P08172).
T2 sequence (whole entry): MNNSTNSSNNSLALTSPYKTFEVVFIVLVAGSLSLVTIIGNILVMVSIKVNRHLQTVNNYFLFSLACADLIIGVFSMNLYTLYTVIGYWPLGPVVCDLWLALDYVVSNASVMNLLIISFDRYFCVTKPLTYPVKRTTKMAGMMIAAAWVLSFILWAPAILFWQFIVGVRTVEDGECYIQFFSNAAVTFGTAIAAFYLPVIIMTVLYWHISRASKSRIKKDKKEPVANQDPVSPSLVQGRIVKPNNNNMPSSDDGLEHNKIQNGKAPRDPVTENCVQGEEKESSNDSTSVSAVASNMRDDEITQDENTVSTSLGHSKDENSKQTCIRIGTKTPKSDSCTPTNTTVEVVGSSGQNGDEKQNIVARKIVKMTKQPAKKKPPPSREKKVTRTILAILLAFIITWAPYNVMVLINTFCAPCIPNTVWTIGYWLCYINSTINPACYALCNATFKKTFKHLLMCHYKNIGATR
The experiment in a line: M2 (h) CEREP ligand profiling. The conditions noted are these: Compound concentration 10.0 uM.

Data set [15] concerns the target Muscarinic acetylcholine receptor M3 (Homo sapiens) (UniProt P20309). The experiment in a line: M3 (h) CEREP ligand profiling. The following applies: Compound concentration 10.0 uM.
Data set [16] addresses Neuronal acetylcholine receptor; alpha4/beta2 (Homo sapiens) (UniProt P17787+P43681). The data set can be described thus: N(neuronal) (α-BGTX-insensitive) (α4β2 nicotinic receptor) CEREP ligand profiling. The conditions noted are these: Compound concentration 10.0 uM.
Data set [17] concerns the target Delta-type opioid receptor (Homo sapiens) (UniProt P41143). The experiment in a line: delta2 (h) (DOP) CEREP ligand profiling. The following applies: Compound concentration 10.0 uM.
The target of data set [18] is Kappa-type opioid receptor (Homo sapiens) (UniProt P41145). The data set can be described thus: kappa (KOP) CEREP ligand profiling. The following applies: Compound concentration 10.0 uM.
Data set [19] concerns the target 5-hydroxytryptamine receptor 1A (Homo sapiens) (UniProt P08908). The data set can be described thus: 5-HT1A (h) CEREP ligand profiling. The following applies: Compound concentration 10.0 uM.
Data set [20] deals with Vasopressin V1a receptor (Homo sapiens) (UniProt P37288). The experiment in a line: V1a (h) CEREP ligand profiling. The conditions noted are these: Compound concentration 10.0 uM.
Data set [21] deals with Ca2+ channel (L, diltiazem site) (benzothiazepines); voltage-gated L-type calcium channel (Homo sapiens, UniProt O60840+Q01668+Q13698+Q13936). The data set can be described thus: Ca2+ channel (L, diltiazem site) (benzothiazepines) CEREP ligand profiling. Format: protein assay. The following applies: compound concentration 10 uM.
For data set [22], the target named is Ca2+ channel (L, verapamil site) (phenylalkylamines); voltage-gated L-type calcium channel (Homo sapiens, UniProt O60840+Q01668+Q13698+Q13936). The data set can be described thus: Ca2+ channel (L, verapamil site) (phenylalkylamines) CEREP ligand profiling. The format is protein assay. The conditions noted are these: compound concentration 10 uM.
In data set [23] the target is Sodium-dependent dopamine transporter (Homo sapiens) (UniProt Q01959). The experiment in a line: DA transporter (h) CEREP ligand profiling. The conditions noted are these: Compound concentration 10.0 uM.
Sodium-dependent dopamine transporter (Homo sapiens), sequence (Q01959 whole entry): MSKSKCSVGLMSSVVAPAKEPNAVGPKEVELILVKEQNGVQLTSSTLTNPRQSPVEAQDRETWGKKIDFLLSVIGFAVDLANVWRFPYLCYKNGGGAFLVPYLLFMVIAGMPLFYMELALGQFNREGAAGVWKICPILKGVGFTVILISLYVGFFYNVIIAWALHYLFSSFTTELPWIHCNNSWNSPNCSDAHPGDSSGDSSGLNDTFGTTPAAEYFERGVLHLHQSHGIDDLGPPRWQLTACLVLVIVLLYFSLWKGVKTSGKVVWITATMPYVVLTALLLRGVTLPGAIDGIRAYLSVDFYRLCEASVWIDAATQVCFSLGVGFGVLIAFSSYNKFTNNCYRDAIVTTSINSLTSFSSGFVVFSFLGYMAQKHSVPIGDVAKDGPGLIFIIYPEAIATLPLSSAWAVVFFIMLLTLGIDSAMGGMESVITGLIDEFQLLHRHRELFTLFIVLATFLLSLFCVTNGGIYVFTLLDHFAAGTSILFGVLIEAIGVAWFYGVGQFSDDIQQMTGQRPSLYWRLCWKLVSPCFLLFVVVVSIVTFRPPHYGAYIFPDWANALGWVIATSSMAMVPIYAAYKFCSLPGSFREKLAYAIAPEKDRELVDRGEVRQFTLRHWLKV
Data set [24] deals with Sodium-dependent serotonin transporter (Homo sapiens) (UniProt P31645). The data set can be described thus: 5-HT transporter (h) CEREP ligand profiling. The conditions noted are these: Compound concentration 10.0 uM.
The target in data set [25] is Sodium- and chloride-dependent GABA transporter 1 (Homo sapiens) (UniProt P30531). The experiment in a line: GABA transporter CEREP ligand profiling. The conditions noted are these: Compound concentration 10.0 uM.
For data set [26], the target named is Phosphodiesterase 3 (Homo sapiens) (UniProt Q14432+Q13370). The data set can be described thus: PDE 3 (h) CEREP ligand profiling. The conditions noted are these: Compound concentration 10.0 uM. The format is protein assay.
The target of data set [27] is Phosphodiesterase 4 (Homo sapiens) (UniProt P27815+Q08499+Q07343+Q08493). The data set can be described thus: PDE 4 (h) CEREP ligand profiling. The format is protein assay. The following applies: Compound concentration 10.0 uM.
Data set [28] addresses Mitogen-activated protein kinase 14 (Homo sapiens) (UniProt Q16539). The data set can be described thus: p38alpha kinase (h) CEREP ligand profiling. The conditions noted are these: Compound concentration 10.0 uM.
Data set [29] has as its target Sodium/potassium-transporting ATPase (Homo sapiens) (UniProt P05023+P14415+P05026+P50993+P54709+P13637+Q13733+P54710). The experiment in a line: ATPase (Na+/K+) CEREP ligand profiling. Format: protein-complex assay. The conditions noted are these: Compound concentration 10.0 uM.
In data set [30] the target is Histamine H4 receptor (Homo sapiens) (UniProt Q9H3N8). The following applies: Compound concentration 10.0 uM.
Histamine H4 receptor (Homo sapiens), sequence (Q9H3N8 whole entry): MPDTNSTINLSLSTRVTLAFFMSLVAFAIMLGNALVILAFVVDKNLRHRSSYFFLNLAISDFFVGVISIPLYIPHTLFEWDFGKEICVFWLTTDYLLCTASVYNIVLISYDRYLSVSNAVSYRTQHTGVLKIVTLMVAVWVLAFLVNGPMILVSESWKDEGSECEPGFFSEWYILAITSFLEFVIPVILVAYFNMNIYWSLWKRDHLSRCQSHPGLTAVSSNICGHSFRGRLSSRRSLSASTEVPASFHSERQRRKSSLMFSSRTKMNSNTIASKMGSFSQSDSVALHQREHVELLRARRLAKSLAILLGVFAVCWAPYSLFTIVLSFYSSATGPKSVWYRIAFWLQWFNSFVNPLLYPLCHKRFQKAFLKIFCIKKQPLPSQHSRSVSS

The structures appear in SMILES notation.

Cannabinoid receptor 1, sequence (P21554 whole entry): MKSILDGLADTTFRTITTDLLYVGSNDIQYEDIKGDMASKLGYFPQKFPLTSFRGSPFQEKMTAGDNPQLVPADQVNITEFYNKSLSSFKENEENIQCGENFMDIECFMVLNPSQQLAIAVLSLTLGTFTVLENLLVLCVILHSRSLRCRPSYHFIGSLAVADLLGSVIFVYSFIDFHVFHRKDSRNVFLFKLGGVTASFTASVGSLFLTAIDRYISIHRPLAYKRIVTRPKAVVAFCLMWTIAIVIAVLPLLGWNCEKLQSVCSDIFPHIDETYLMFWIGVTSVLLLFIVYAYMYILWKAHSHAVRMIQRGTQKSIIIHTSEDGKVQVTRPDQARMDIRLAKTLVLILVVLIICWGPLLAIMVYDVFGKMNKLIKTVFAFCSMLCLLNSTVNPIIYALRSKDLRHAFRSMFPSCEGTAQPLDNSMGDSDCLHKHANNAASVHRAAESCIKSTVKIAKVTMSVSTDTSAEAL
Cannabinoid receptor 2, sequence (P34972 whole entry): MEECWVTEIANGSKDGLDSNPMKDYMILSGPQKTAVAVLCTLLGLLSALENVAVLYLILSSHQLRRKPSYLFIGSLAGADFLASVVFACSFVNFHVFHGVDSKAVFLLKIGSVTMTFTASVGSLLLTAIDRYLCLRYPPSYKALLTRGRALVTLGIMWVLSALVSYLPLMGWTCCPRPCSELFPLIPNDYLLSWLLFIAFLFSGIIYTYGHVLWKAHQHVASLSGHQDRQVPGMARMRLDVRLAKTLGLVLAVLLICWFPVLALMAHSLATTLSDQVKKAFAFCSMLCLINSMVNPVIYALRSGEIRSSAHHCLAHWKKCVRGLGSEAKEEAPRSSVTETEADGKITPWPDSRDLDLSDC
5-hydroxytryptamine receptor 2B, sequence (P41595 whole entry): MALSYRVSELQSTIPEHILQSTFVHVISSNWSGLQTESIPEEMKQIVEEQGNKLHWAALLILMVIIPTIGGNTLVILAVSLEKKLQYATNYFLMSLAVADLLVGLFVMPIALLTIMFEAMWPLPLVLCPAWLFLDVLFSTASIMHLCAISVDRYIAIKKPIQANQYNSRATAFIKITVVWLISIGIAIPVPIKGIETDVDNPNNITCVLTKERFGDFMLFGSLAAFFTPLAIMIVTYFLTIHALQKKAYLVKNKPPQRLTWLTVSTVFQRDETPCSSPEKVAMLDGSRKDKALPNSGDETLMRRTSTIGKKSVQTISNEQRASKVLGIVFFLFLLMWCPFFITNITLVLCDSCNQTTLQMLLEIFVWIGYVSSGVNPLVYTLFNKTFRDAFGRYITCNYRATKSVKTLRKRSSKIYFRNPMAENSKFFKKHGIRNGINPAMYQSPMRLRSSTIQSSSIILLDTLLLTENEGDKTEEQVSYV
Fatty-acid amide hydrolase 1, sequence (O00519 whole entry): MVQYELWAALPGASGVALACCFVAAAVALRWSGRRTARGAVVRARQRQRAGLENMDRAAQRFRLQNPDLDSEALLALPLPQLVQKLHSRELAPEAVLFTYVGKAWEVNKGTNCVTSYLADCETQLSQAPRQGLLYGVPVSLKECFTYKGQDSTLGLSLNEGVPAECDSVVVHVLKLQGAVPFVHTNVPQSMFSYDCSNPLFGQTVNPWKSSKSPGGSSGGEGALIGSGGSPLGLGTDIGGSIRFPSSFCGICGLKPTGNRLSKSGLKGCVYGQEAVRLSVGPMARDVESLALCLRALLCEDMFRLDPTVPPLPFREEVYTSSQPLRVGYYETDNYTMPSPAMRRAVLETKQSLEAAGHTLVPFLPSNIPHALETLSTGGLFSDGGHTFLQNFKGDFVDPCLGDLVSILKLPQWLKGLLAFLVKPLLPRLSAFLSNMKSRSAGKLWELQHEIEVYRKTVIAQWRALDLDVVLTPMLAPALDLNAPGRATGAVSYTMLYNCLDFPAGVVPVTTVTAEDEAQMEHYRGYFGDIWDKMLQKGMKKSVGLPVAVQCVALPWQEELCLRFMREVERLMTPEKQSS
Cholecystokinin receptor type A (Homo sapiens), sequence (P32238 whole entry): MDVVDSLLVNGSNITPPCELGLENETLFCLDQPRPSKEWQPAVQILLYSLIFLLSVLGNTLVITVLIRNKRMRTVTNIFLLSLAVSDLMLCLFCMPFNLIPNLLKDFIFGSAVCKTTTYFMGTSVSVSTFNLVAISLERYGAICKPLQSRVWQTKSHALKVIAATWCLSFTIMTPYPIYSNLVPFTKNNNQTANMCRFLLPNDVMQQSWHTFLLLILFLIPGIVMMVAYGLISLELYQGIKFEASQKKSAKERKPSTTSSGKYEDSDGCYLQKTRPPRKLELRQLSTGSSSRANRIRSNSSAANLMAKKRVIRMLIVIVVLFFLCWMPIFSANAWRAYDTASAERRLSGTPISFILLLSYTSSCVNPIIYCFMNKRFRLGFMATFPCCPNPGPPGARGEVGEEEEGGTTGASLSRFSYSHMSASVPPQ
Beta-1 adrenergic receptor (Homo sapiens), sequence (P08588 whole entry, looked up): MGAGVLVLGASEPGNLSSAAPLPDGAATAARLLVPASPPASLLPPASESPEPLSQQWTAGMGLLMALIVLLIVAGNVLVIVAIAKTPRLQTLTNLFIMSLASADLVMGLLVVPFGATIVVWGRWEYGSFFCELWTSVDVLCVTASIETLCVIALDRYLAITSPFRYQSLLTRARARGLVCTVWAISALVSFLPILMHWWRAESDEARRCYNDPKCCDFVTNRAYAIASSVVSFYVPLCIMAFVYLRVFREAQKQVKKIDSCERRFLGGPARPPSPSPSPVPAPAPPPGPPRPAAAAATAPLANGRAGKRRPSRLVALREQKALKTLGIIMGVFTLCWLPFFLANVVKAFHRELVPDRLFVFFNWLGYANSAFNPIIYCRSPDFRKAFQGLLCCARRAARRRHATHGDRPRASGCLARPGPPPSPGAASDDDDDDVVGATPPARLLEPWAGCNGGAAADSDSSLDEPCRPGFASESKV
Sigma non-opioid intracellular receptor 1, sequence (Q99720 whole entry): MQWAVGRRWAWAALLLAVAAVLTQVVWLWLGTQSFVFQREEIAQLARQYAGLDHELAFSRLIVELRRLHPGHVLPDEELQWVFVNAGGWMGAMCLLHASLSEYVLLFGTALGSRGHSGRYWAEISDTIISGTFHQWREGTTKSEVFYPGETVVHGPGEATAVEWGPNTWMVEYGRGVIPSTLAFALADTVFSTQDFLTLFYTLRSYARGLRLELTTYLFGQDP

In the case of `O=C(Nc1cccnn1)N1CC(C/C=C/c2cncc(Oc3ccc(C(F)(F)F)cn3)n2)C1`, in data set [1], the IC50 is > 100 µM (not active).
For `O=C(Nc1cccnn1)N1CCC(=Cc2cccc(Oc3ccc(C(F)(F)F)cn3)c2)CC1`, the inhibition constant (Ki) came to 1.34 µM in data set [2], 0.472 µM in [3], 14 µM at Cannabinoid receptor 1 and 5.1 µM at Cannabinoid receptor 2. The inhibition in data set [4] is 3%; in data set [5], -2%; in data set [6] it was -4%; in [7], 1%; at Cannabinoid receptor 1 (Compound concentration 10.0 uM) it was 55%; on Cannabinoid receptor 2 (Compound concentration 10.0 uM) it was 55%. The inhibition is -10% in data set [8]; -6% in data set [9]; 3% in data set [10]; -8% in [11]; -2% in data set [12]; 15% in data set [14]. In addition, the inhibition is 11% in data set [15]; 8% in data set [16]; 2% in data set [17]; 0% in [18]; 6% in data set [19]; 8% in data set [20]. In addition, the inhibition was -1% in data set [23]; 11% in data set [24]; -1% in data set [25]; 10% in data set [26]; 18% in data set [27]; 1% in data set [28]. Also, the inhibition in data set [29] is -2%; in [30], 17.3%. Further, the results for the inhibition at 10 µM in data set [13], in [21] and in data set [22] were 13% (not active), 1% (not active) and -5% (not active), respectively.
